Reference: ChEMBL document CHEMBL3507680, “University of Dundee, Gates Library screen for HepG2 cell viability”

experiment: Human HepG2 cell viability assay in 384 well format; type: toxicity, cell-based; design: dose 125 nL, time 70.5 hour; cytotoxicity at 70.5 h: concentration not given beside the values; conditions: HepG2 cells, read-out: Inhibition

Compound | cytotoxicity at 70.5 h [%]
CCCN1C[C@H]2CC[C@@H]1CN(C(=O)c1ccc(N(C)CCO)cc1)C2 | 1.16
Cc1ccc(-c2ccnc(N[C@H]3COC[C@@H]3N3CCCC3)n2)c(C)n1 | -10.9
Cc1cc(C)nc(N2CCC(c3cccc(CCC(=O)O)n3)CC2)n1 | -9.41
CC(Cn1cccn1)NC(=O)NCCCN1CCCCCC1=O (stereo not drawn) | 0.306
CC(c1ncc(C(C)(C)C)o1)N1CCN(Cc2ccncc2)CC1 (stereo not drawn) | -12.1
COCCN1CCC(NCc2cccc(F)c2)C1 (stereo not drawn) | 26.3
CC(NC(=O)N1CCC(CO)CC1)c1csc2ccccc12 (stereo not drawn) | -1.97
N#Cc1ccc(NCCC(=O)N2CCCc3ccccc32)nc1 | -6.4
Cc1cc(I)cnc1NC(=O)C(C)(C)C | 5.65
COc1ccc2c(c1)C(C(=O)NCCN1CCOC1=O)CC(=O)N2 (stereo not drawn) | -4.48
Cc1ccc(CN2CCc3ncnc(C4CC4)c3CC2)s1 | 33.9
CN1CC[C@H](N(Cc2ccccc2)CC2CC2)C[C@H](O)C1 | 9.84
Cc1nc(CNC(=O)NCC2(C)CCCc3ccccc32)no1 (stereo not drawn) | 29.3
Cc1nccn1C1CCCN(C(=O)c2ccc3nncn3c2)C1 (stereo not drawn) | -4.02
COCCN1CC[C@@H]2O[C@@H](COCC(=O)N3CCCC3)CC[C@@H]21 | -3.26
Cc1ccc(Cl)cc1NC(=O)C1CC(=O)N(Cc2ccccn2)C1 (stereo not drawn) | 8.15
O=c1cc(N2CCNCC2)cnn1Cc1noc(C2CCCC2)n1 | -23.8
COc1cc(C(=O)O)ccc1OCC(=O)NCCc1ccccc1 | -2.71
Cn1ncc2c(=O)[nH]c(N3CCCC3c3cccc(Cl)c3)nc21 (stereo not drawn) | -1.55
CN(C)CCn1c2c(ccc1=O)CCN(C(=O)c1ccoc1)CC2 | -1.95
O=C1CC[C@H]2[C@H](CCN2C(=O)C2CCOC2)N1Cc1ccncc1 (stereo partly drawn) | -20.6
CCN1CC2(CCC1=O)CCN(Cc1cccc(OC(F)F)c1)CC2 | 20.5
CC1CN(C(=O)C2(c3cccc(F)c3)CCOCC2)CCO1 (stereo not drawn) | -3.81

Compound | cytotoxicity at 70.5 h [%]
CCOC(=O)c1cccc(N2CCCC3(CCC(=O)N(C4CC4)C3)C2)n1 (stereo not drawn) | -2.93
COCCNC(=O)C(C)N1CCN(C)CC1 (stereo not drawn) | -5.18
CN(Cc1nnc2ccccn12)C(=O)CC1CCCCC1 | -8.16
CCc1ccc(CN2C[C@H](OCC(=O)N(C)C)[C@H]3COC[C@H]32)o1 | -0.34
CC(c1nc(C2CC2)no1)N1CCc2c(ncn2C)C1 (stereo not drawn) | 0.478
Cc1noc([C@@H]2CC[C@@H]3[C@@H](CCN3S(=O)(=O)C3CC3)O2)n1 | 2.67
O=C1CN(C(=O)CN(CC2CCC2)CC(F)(F)F)CCN1 | -9.35
CCN(CCCNCc1c(C)nn(C)c1N(C)C)S(C)(=O)=O | 4.83
COC(=O)c1ccc(CN2CCC(c3n[nH]c(C)n3)CC2)s1 | -0.468
CCCS(=O)(=O)N1CCN(c2cc(-n3cnc(C)c3C)nc(C)n2)CC1 | -4.37
CCOCC(=O)Nc1cc(-c2cccc(F)c2F)n[nH]1 | -7.88
CC(C)CN1CCC2(CCN(Cc3ccoc3)CC2)C1=O | -12.7
c1ccc(-c2ncc(CNC3CCc4ncnn4C3)cn2)cc1 (stereo not drawn) | -11
O=C(Cn1ccc(=O)[nH]c1=O)NCC1Cc2ccccc2O1 (stereo not drawn) | -11.6
Cc1ccccc1-c1cc(NC(=O)NC2CCC(O)CC2)n(CCO)n1 (stereo not drawn) | -3.45
Cc1cc(C(=O)NCc2ccnc(N(C)C)c2)c(C)o1 | -13.2
CCOc1cccc(C(=O)N2CCC(c3n[nH]c(C4CC4)n3)CC2)c1 | -8.11
Cc1cccc(Nc2noc3c2CN(C(=O)c2ccn(C)n2)CC3)c1C | 3.73
Cn1cc(C(=O)N2C[C@@H]3COC[C@]3(COCc3cccnc3)C2)cn1 | -12.3
CC(=O)N1CCC(N2CCOC(CC3CCCCC3)C2)CC1 (stereo not drawn) | -4.68
CC(C(=O)NC1CC1)S(=O)(=O)Cc1csc(-c2cccs2)n1 (stereo not drawn) | 11
Cc1cccn2c(=O)cc(OC(=O)c3ccccc3Cl)nc12 | -10.1
CN(CCN1CCOCC1)C(=O)CCc1cccc(Cl)c1 | 20.6

Compound | cytotoxicity at 70.5 h [%]
COCCNC(=O)c1cccnc1Oc1ccc(Cl)cc1 | -7.58
O[C@@]1(CNCC2(Cn3cccn3)CC2)CCCN2CCCC[C@@H]21 | -11.3
CCOc1ccc(C(=O)N2CCCCC2Cn2nc(C)cc2C)cn1 (stereo not drawn) | 21
O=C(N[C@@H]1CCNC[C@H]1O)c1ccc(F)c(Cl)c1 | -7.9
O=C(N1CCCC1)N1C[C@@H](OCc2cccnc2)[C@H]2OCCC[C@H]21 | 12.7
O=S(=O)(c1c(Cl)nc2sccn12)N1CCCC2(CCNC2)C1 (stereo not drawn) | -7.18
Cc1cccc2nc(CSCc3nnnn3C(C)C)cn12 | -14.3
O=C(c1cscn1)N1C[C@H]2CCCC(OCc3cccnc3)[C@H]2C1 (stereo partly drawn) | -11.5
CC(NC(=O)NCCc1nc(C(F)(F)F)cs1)C(=O)N(C)C (stereo not drawn) | -7.19
COc1cc(F)c(S(=O)(=O)N2CCN(C)Cc3ccccc32)cc1OC | -10.1
Cc1ccc(C2(CN(C)Cc3sccc3C)CCNCC2)nc1 | 10.6
CN1CCC(CCNC(=O)c2ccc(N(C)S(C)(=O)=O)cc2Cl)CC1 | -7.69
COC(=O)NCC(=O)N(C)Cc1csc(C)n1 | -4.39
CC(C)c1cc(C(=O)N[C@H]2CN(C3CCOCC3)C[C@@H]2C2CC2)no1 | -6.62
Cc1nc(COC[C@@H]2CC[C@H]3[C@H](CCN3c3ccccn3)O2)cs1 | -90.1
Cn1ccc(C(=O)N2CCC(Cc3cccc4ncccc34)C2)n1 (stereo not drawn) | -1.84
Cc1cc(CN2CCOC(CNc3cccnn3)C2)no1 (stereo not drawn) | 2.59
C[S+]([O-])CCNC(=O)N1CCSC(C)(C)C1 (stereo not drawn) | -1.1
Cc1noc(-c2ccnc(Oc3ccc(CN4CCCC4)cc3C)c2)n1 | -4.76
C=Cn1ncc(CN2C[C@@H]3C[C@@H](O)CN3C[C@H]2Cc2ccccc2)c1C | -5.5
O=C(NCCCOc1cccnc1)c1cn(Cc2ccccc2F)nn1 | -12.2
Cc1cnc(N2CCC3(CCCN3C(=O)c3ccco3)CC2)nc1 | -2.74
CCCc1n[nH]c(C2CN(C(=O)c3cncnc3C)CCO2)n1 (stereo not drawn) | 3.13

Compound | cytotoxicity at 70.5 h [%]
Cc1nnc(C(C)N(C)Cc2c(C)nn(-c3ccccc3)c2C)o1 (stereo not drawn) | -1.32
N#Cc1cccc(CN2C[C@H](NC(=O)C3CC3)[C@H]3OCCC[C@H]32)c1 | -14
CC(C)(C)c1n[nH]cc1CNC1CCC(OCC(F)(F)F)CC1 (stereo not drawn) | -11.2
CC/C=C(/C)C(=O)N1CCN(C2=NCC(C)S2)CC1 (stereo not drawn) | 32.7
CC(C)CC(=O)N(C)CC(=O)Nc1ccc(Br)cn1 | 0.489
Cc1nn(C)c(N(C)C)c1CNCCC(=O)NC1CCCC1 | 3.14
O=C(NCC1CCN(Cc2ccsc2)CC1)NC1CC1 | 1.34
O=C(CC1CN(Cc2ccccc2)CCO1)NC1CCSCC1 (stereo not drawn) | 3.03
Cc1cccc(CN2C(=O)CCC23CCN(C(=O)N2CCCC2)CC3)n1 | 0.698
Cc1ccc(-c2cc(N)c(=O)n(C(C)C(N)=O)n2)o1 (stereo not drawn) | -5.11
CC(=O)c1cc(C(=O)N2CCN(C)Cc3ccccc32)n(C)c1 | -3
Cc1nc(NCC(O)CN2CCCCCC2)c2c(C)noc2n1 (stereo not drawn) | -5.74
COc1ccc(NC(=O)C2CC(=O)N(C)C2)cn1 (stereo not drawn) | -5.38
Cc1ccc(C(=O)Nc2ccccc2N2CCCC2)n1C | 12
COc1cccc2ccc(CN3CCN(c4cccnc4)CC3)nc12 | 7.51
COCC(=O)N1CCC2(COCc3cnc(-c4ccccc4)nc32)C1 (stereo not drawn) | -3.58
CCOc1cc(C)nc(N2CCN(C(=O)c3cc(Cl)c[nH]3)CC2)n1 | -8.74
Cc1nnc(NC(=O)C2CSCN2C(=O)C2CCCC2)s1 (stereo not drawn) | -3.18
CCc1ccccc1N1CC(c2nnc(N)s2)CC1=O (stereo not drawn) | -13.1
c1cncc(Cc2nnc3n2CCN(CC2CCOC2)CC3)c1 (stereo not drawn) | -10.7
CN1CC2(CCN(C(=O)c3ccc(-n4cccn4)cc3Cl)C2)OC1=O (stereo not drawn) | -2.7
CC(NC(=O)C1(NC(=O)c2ccc3[nH]ncc3c2)CCCC1)C1CC1 (stereo not drawn) | -5.24
Cc1cccc(N2CC3(CCN(C(=O)NC(C)C)C3)CC2=O)c1 (stereo not drawn) | -9.16

Compound | cytotoxicity at 70.5 h [%]
O=C(c1ccc(O)nc1)N1Cc2ccccc2OC2(CCOCC2)C1 | 0.0352
Cc1ccccc1-c1cncc(C2CCN(C)CC2)n1 | -14.3
COCCNC(=O)CN1CCCC1c1c(C)nn(C)c1Cl (stereo not drawn) | -1.71
Cc1nccn1CCC1CCCCN1Cc1cccc(CCN)c1 (stereo not drawn) | -1.82
Cc1c(F)cc(C(=O)O)cc1S(=O)(=O)Nc1ccc(C#N)cc1 | 19.6
CN(CCn1cnc(-c2ccccc2)c1-c1ncc[nH]1)S(C)(=O)=O | 7.51
CCc1ncc(C(=O)N2CCC(Nc3ccc(C)nn3)CC2)s1 | -8.02
CC(Cn1cccn1)NCc1cnc(N2CCCC2)nc1 (stereo not drawn) | -3.66
O=C(c1ccc(S(=O)(=O)NCc2ccon2)cc1)N1CCCCCC1 | -7.49
CC(=O)N1CCC2(CC1)CN(CC(C)C)CC21CCNC1=O (stereo not drawn) | 13.6
CCn1ccnc1CN1CCC(CNC(=O)c2ccc(C)nc2)C1 (stereo not drawn) | -9.04
CCCc1nnc(NC(=O)N2CCCC(NC(C)=O)C2)s1 (stereo not drawn) | -4.43
COCCn1ccnc1C1CCCN(C(=O)CSCC2CC2)C1 (stereo not drawn) | -3.02
COCCn1cc(C(=O)NCCS(N)(=O)=O)c2ccccc21 | -7.1
Cc1ccc(C)c(C(=O)NC2CCC(N3C(=O)CCC3=O)CC2)c1 (stereo not drawn) | 3.79
CCC(c1nc(CC(C)C)nn1-c1ccccn1)n1cccn1 (stereo not drawn) | -12.3
O=C(NCCCNCC1CNc2ccnn2C1)c1ccccc1 (stereo not drawn) | -12
CCCN1CCC=C(C2c3nc[nH]c3CCN2C(=O)c2ccco2)C1 (stereo not drawn) | 22.4
CCOCC1CN(C(=O)Cc2ccccn2)Cc2c1cnn2C (stereo not drawn) | -7.19
Cc1cnn(CCNCc2csc(-c3ccccc3)n2)c1 | 15.6
O=C(c1ccoc1)N1CCCCC1c1nc[nH]n1 (stereo not drawn) | -1.78
